Data reported in patent US6884772B1, “Depilatories and agents for external use” (Kao Corporation, priority 1999, dated 2005).
Where no end group is shown, it is not given here.

Legend:
[1] = system: growth-phase hair follicle; test: Structural changes of hair follicle structure (hematoxylin-eosin staining of dorsal skin); format: in vivo, guinea pig; conditions: 0.3 μg intracutaneous
Protocol: A solution of endothelin-1 (0.3 μg) in phosphate buffer solution (PBS), which contained 1.1% of bovine serum albumin (BSA), was intracutaneously administered (at 50 μL/site) to the dorsal part of a guinea pig. After that, samples were collected day after day from the administered dorsal skin, and tissue samples were prepared by hematoxylin-eosin staining.

[2] = system: dorsal parts of guinea pigs; test: Growth-phase hair follicle inhibitory effects (number of hair shafts grown per unit area); format: in vivo, guinea pig; conditions: 1 μg each, intracutaneous, 50 μL/site, fifth day after the administration (FIG. 1)
Protocol: Solutions (1 μg, each) of endothelin-1, endothelin-2 and endotherin-3 in aliquots of phosphate buffer solution (PBS), which contained 0.1% of bovine serum albumin (BSA), were intracutaneously administered (at 50 μL/site) to the dorsal parts of guinea pigs, respectively, from which hair had been cut off by a hair clipper. Three days after the administration, hair was again cut off by a hair clipper from the administered sites. Two days after the cutting, the numbers of hair shafts grown per unit area at the administered sites were counted.

[3] = system: dorsal part of a guinea pig; test: Depilation inducing effects of endothelin (intracutaneous administration); format: in vivo; conditions: 0.3 μg in 0.1% BSA/PBS, 50 μL/site, 10 days after the administration
Protocol: A solution of endothelin-1 (0.3 μg) in phosphate buffer solution (PBS), which contained 0.1% of bovine serum albumin (BSA), was intracutaneously administered (at 50 μL/site) to the dorsal part of a guinea pig.

[4] = system: hair follicle organs in growth phase from a human scalp tissue; test: Growth inhibitory effects on organ-cultured hair follicles; format: cell-based
Protocol: From a human scalp tissue, hair follicle organs in growth phase were surgically isolated under a stereomicroscope. Following a conventional procedure [Philpott M.P., et al., J. Cell Sci., 97, 463-471 (1990), the isolated hair follicles were subjected to organ culture. Described specifically, endothelin-1 was added to William's E medium which contained L-glutamine (2mM), hydrocortisone (10ng/mL), insulin ([…]) sodium selenite (10 ng/mL) and transferrin (10 μg/mL).

Row | Compound | Hair follicle histology ([1]; 1st day after the administration (FIG. 2)) | Hair follicle histology ([1]; 3rd day after the administration (FIG. 2)) | Number of hair shafts grown per unit area at the administered sites [2] | Hair shaft falling-off and formation of depilation spot at the administered site [3] | Percent regression of growth-phase hair follicles ([4]; 10 ng/mL, Day 1 of incubation) [%] | Percent regression of growth-phase hair follicles ([4]; 10 ng/mL, Day 2 of incubation) [%] | Percent regression of growth-phase hair follicles ([4]; 100 ng/mL, Day 1 of incubation) [%] | Percent regression of growth-phase hair follicles ([4]; 100 ng/mL, Day 2 of incubation) [%] | Grown hair follicle lengths (hair growth inhibition) ([4]; day 4 of incubation and the subsequent days, compared with control group without endothelin-1 (FIG. 3)) | Structural change of incubated growth-phase hair follicles ([4]; during the incubation period (FIG. 4))
1 | CC[C@H](C)[C@H](NC(=O)[C@H](CC(=O)O)NC(=O)[C@H](CC(C)C)NC(=O)[C@H](Cc1c[nH]cn1)NC(=O)[C@@H]1CSSC[C@H](N)C(=O)N[C@@H](CO)C(=O)N[C@H]2CSSC[C@H](NC(=O)[C@H](CCC(=O)O)NC(=O)[C@H](CCCCN)NC(=O)[C@H](CC(=O)O)NC(=O)[C@H](CCSC)NC(=O)[C@H](CC(C)C)NC(=O)[C@H](CO)NC(=O)[C@H](CO)NC2=O)C(=O)N[C@@H](C(C)C)C(=O)N[C@@H](Cc2ccc(O)cc2)C(=O)N[C@@H](Cc2ccccc2)C(=O)N1)C(=O)N[C@H](C(=O)N[C@@H](Cc1c[nH]c2ccccc12)C(=O)O)[C@@H](C)CC [Endothelin-1, endothelin-1] | regressed image of a growth-phase hair follicle was observed | image of a follicular tissue in transition phase was presented | significant (p<0.01) decrease in the number of hair shafts | hair shaft falling-off and formation of a marked depilation spot were observed | 0.0 | 0.0 | 0.0 | 0.0 | significant hair growth inhibitory effects were observed | structural change of the endothelin-treated, growth-phase hair follicles into those similar to resting-phase hair follicles was observed
2 | endothelin-2 (CSCSSWLDKECVYFCHLDIIW; ends and bridges not checked; cysteine pairing not given here; UniProt P20800 49-69, looked up) [peptide composed of 21 amino acid residues, isoform of endothelin] | – | – | significant (p<0.01) decrease in the number of hair shafts | – | – | – | – | – | – | –
3 | endothelin-3 (CTCFTYKDKECVYYCHLDIIW; ends and bridges not checked; cysteine pairing not given here; UniProt P14138 97-117, looked up) [endotherin-3, peptide composed of 21 amino acid residues, isoform of endothelin] | – | – | significant (p<0.01) decrease in the number of hair shafts | – | – | – | – | – | – | –
